Experimental data published in US9994547B2, “Heteroarylamide inhibitors of TBK1” (Takeda Pharmaceutical Company Limited, priority 2014, dated 2018).

target: Full length human TBK1 (Homo sapiens (Human), UniProt Q9UHD2); assay: Inhibition of TBK1 Enzyme (Example A); format: biochemical; conditions: -log(IC50), IC50 molar; 3 nM TBK1, 25 μM ATP, 60 min RT
Description: Full length human TBK1 with an N-terminal His-tag was cloned into the pFastBacl vector and was transfected into Sf9 cells. 72 hours later the virus was harvested and amplified through two additional rounds of infections. Then 400 mL of the resulting virus stock was used to infect 10 L of Sf9 cells at a density of 2×10^6 cells/mL. Cell pellets were harvested 48 hours post infection and were lysed by freeze-thaw, homogenization and sonication in binding buffer (25 mM Tris pH7.6, 1 M NaCl, 10 mM imidazole, 0.5 mM TCEP) plus 0.1% Triton X-100 and complete protease inhibitor cocktail. The lysate was spun and the supernatant was purified with a HisTrap FF crude and a Superdex 200 pg column.
TBK1 inhibition is determined using a 384 well plate format in buffer containing 20 mM Hepes, pH 7.4, 10 mM MgCl2, 1 mM EDTA, 0.01% Brij-L23, 1 mM DTT. Each test compound is prepared in DMSO using 2.5-fold serial dilutions for 11 data points, which are added to the buffer so that each dilution contains 1% DMSO. To each well is added 2 μL of 1 μM 5FAM-DRHDSGLDSMKDE-NH2 (in buffer), 2 μL of diluted test compound (1% DMSO in buffer), and 5 μL of 3 nM TBK1 and 25 μM ATP (in buffer). The reaction mixture is incubated at RT for 60 min, and quenched by adding 20 mM Hepes, pH 7.4, 10 mM MgCl2, 1 mM EDTA, 0.01% Brij-L23, 1 mM DTT+25 mM EDTA. To quantify the fluorescent-labeled substrate and product following reaction, the test plate is loaded on a Caliper LC-3000, which measures percent of conversion by microfluidic-based separation. Corresponding IC50 values are calculated by non-linear curve fitting of the compound concentrations and percent of inhibition to the standard IC50 equation and reported as pIC50, i.e., −log(IC50), where IC50 is the molar concentration.

Full length human TBK1, sequence (Q9UHD2 whole entry): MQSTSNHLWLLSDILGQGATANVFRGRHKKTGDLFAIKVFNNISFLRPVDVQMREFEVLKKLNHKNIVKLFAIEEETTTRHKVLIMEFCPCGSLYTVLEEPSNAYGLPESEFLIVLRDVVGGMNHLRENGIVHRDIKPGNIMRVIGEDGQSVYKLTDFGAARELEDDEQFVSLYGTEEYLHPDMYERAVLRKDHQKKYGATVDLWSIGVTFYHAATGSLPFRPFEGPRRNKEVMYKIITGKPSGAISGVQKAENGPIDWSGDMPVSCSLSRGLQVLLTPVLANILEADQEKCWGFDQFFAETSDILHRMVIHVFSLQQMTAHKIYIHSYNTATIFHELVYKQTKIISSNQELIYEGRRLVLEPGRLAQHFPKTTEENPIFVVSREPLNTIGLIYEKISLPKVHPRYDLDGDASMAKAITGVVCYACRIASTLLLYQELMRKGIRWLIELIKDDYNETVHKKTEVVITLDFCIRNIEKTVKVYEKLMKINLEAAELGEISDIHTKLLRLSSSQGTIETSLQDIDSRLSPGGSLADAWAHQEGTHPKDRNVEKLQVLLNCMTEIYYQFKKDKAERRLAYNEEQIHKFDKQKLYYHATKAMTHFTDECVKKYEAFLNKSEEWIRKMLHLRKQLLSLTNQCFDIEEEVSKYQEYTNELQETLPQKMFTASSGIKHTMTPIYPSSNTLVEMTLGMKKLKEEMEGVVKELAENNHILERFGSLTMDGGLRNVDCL

TBK1 Inhibition (pIC50)	SMILES
6.8	CC1CN(C(=O)CNc2cc(-c3cnc(NC(=O)C4CC4)cn3)cnc2C#N)CCO1 (stereo not drawn) [Example 103, N-(5-(6-cyano-5-((2-(2-methylmorpholino)-2-oxoethyl)amino)pyridin-3-yl)pyrazin-2-yl)cyclopropanecarboxamide]
6.8	C[C@H](Nc1cc(-c2cnc(NC(=O)C3CC3)cn2)cnc1C#N)C(=O)N(CC#N)CCO [Example 93, (S)-N-(5-(6-cyano-5-((1-((cyanomethyl)(2-hydroxyethyl)amino)-1-oxopropan-2-yl)amino)pyridin-3-yl)pyrazin-2-yl)cyclopropanecarboxamide]
6.2	CCC(C#N)N(C)C(=O)CNc1cc(-c2cnc(NC(=O)C3CC3)cn2)cnc1C#N (stereo not drawn) [Example 92, N-(5-(6-cyano-5-((2-((1-cyanopropyl)(methyl)amino)-2-oxoethyl)amino)pyridin-3-yl)pyrazin-2-yl)cyclopropanecarboxamide]
7.0	CN(C)C(=O)CNc1cc(-c2cnc(NC(=O)C3CC3)cn2)cnc1C#N [Example 122, N-(5-(6-cyano-5-((2-(dimethylamino)-2-oxoethyl)amino)pyridin-3-yl)pyrazin-2-yl)cyclopropanecarboxamide]
7.0	C[C@@H](Nc1cc(-c2cnc(NC(=O)C3CC3)cn2)cnc1C#N)C(=O)N(C)CC(F)F [Example 83, (R)-N-(5-(6-cyano-5-((1-((2,2-difluoroethyl)(methyl)amino)-1-oxopropan-2-yl)amino)pyridin-3-yl)pyrazin-2-yl)cyclopropanecarboxamide]
6.9	CC(C)NC(=O)[C@H](C)Nc1cc(-c2cnc(NC(=O)C3CC3)cn2)ccc1C#N [Example 14, (S)-N-(5-(4-cyano-3-((1-(isopropylamino)-1-oxopropan-2-yl)amino)phenyl)pyrazin-2-yl)cyclopropanecarboxamide]
8.6	C[C@H](Nc1cc(-c2cnc(NC(=O)C3CC3)cn2)cnc1C#N)C(=O)N(C)CC(F)F [Example 53, (S)-N-(5-(6-cyano-5-((1-((2,2-difluoroethyl)(methyl)amino)-1-oxopropan-2-yl)amino)pyridin-3-yl)pyrazin-2-yl)cyclopropanecarboxamide]
6.6	CN(C(=O)CNc1cc(-c2cnc(NC(=O)C3CC3)cn2)cnc1C#N)C1CCOC1 (stereo not drawn) [Example 71, N-(5-(6-cyano-5-((2-(methyl(tetrahydrofuran-3-yl)amino)-2-oxoethyl)amino)pyridin-3-yl)pyrazin-2-yl)cyclopropanecarboxamide]
7.9	C[C@H](Nc1cc(-c2cnc(NC(=O)C3CC3)cn2)cnc1C#N)C(=O)N(C)CC#N [Example 50, (S)-N-(5-(6-cyano-5-((1-((cyanomethyl)(methyl)amino)-1-oxopropan-2-yl)amino)pyridin-3-yl)pyrazin-2-yl)cyclopropanecarboxamide]
8.1	CN(C)C(=O)C(CC(F)F)Nc1cc(-c2cnc(NC(=O)C3CC3)cn2)ccc1C#N (stereo not drawn) [Example 8, N-(5-(4-cyano-3-((1-(dimethylamino)-4,4-difluoro-1-oxobutan-2-yl)amino)phenyl)pyrazin-2-yl)cyclopropanecarboxamide]

Continued, compound first:

SMILES	TBK1 Inhibition (pIC50)
N#Cc1ncc(-c2cnc(NC(=O)C3CC3)cn2)cc1NCC(N)=O [Example 121, N-(5-(5-((2-amino-2-oxoethyl)amino)-6-cyanopyridin-3-yl)pyrazin-2-yl)cyclopropanecarboxamide]	5.6
COCC[C@H](Nc1cc(-c2cnc(NC(=O)C3CC3)cn2)cnc1C#N)C(=O)N(C)C [Example 131, (S)-N-(5-(6-cyano-5-((1-(dimethylamino)-4-methoxy-1-oxobutan-2-yl)amino)pyridin-3-yl)pyrazin-2-yl)cyclopropanecarboxamide]	7.1
COCC[C@H](Nc1cc(-c2cnc(NC(=O)C3CC3)cn2)cnc1C#N)C(=O)N(C)CCO [Example 52, (S)-N-(5-(6-cyano-5-((1-((2-hydroxyethyl)(methyl)amino)-4-methoxy-1-oxobutan-2-yl)amino)pyridin-3-yl)pyrazin-2-yl)cyclopropanecarboxamide]	6.5
CCN(C)C(=O)[C@H](C)Nc1cc(-c2cnc(NC(=O)C3CC3)cn2)cnc1C#N [Example 112, (S)-N-(5-(6-cyano-5-((1-(ethyl(methyl)amino)-1-oxopropan-2-yl)amino)pyridin-3-yl)pyrazin-2-yl)cyclopropanecarboxamide]	7.7
CC(Nc1cc(-c2cnc(NC(=O)C3CC3)cn2)cnc1C#N)C(=O)N(C)CCF (stereo not drawn) [Example 47, N-(5-(6-cyano-5-((1-((2-fluoroethyl)(methyl)amino)-1-oxopropan-2-yl)amino)pyridin-3-yl)pyrazin-2-yl)cyclopropanecarboxamide]	7.7
C[C@H](Nc1cc(-c2cnc(NC(=O)C3CC3)cn2)cnc1C#N)C(=O)NCC(F)F [Example 114, (S)-N-(5-(6-cyano-5-((1-((2,2-difluoroethyl)amino)-1-oxopropan-2-yl)amino)pyridin-3-yl)pyrazin-2-yl)cyclopropanecarboxamide]	7.7
COCCN(CC(F)F)C(=O)CNc1cc(-c2cnc(NC(=O)C3CC3)cn2)cnc1C#N [Example 82, N-(5-(6-cyano-5-((2-((2,2-difluoroethyl)(2-methoxyethyl)amino)-2-oxoethyl)amino)pyridin-3-yl)pyrazin-2-yl)cyclopropanecarboxamide]	7.8
CN1CCN(C(=O)CNc2cc(-c3cnc(NC(=O)C4CC4)cn3)cnc2C#N)CC1 [Example 97, N-(5-(6-cyano-5-((2-(4-methylpiperazin-1-yl)-2-oxoethyl)amino)pyridin-3-yl)pyrazin-2-yl)cyclopropanecarboxamide]	5.5
CC1(O)CCN(C(=O)CNc2cc(-c3cnc(NC(=O)C4CC4)cn3)ccc2C#N)C1 (stereo not drawn) [Example 132, N-(5-(4-cyano-3-((2-(3-hydroxy-3-methylpyrrolidin-1-yl)-2-oxoethyl)amino)phenyl)pyrazin-2-yl)cyclopropanecarboxamide]	6.2
CCN(C)C(=O)[C@H](C)Nc1cc(-c2cnc(NC(=O)C3CC3)cn2)ccc1C#N [Example 12, (S)-N-(5-(4-cyano-3-((1-(ethyl(methyl)amino)-1-oxopropan-2-yl)amino)phenyl)pyrazin-2-yl)cyclopropanecarboxamide]	8.0
CN(C)C(=O)C(CCO)Nc1cc(-c2cnc(NC(=O)C3CC3)cn2)ccc1C#N (stereo not drawn) [Example 28, N-(5-(4-cyano-3-((1-(dimethylamino)-4-hydroxy-1-oxobutan-2-yl)amino)phenyl)pyrazin-2-yl)cyclopropanecarboxamide]	6.9
COCCN1CCN(C(=O)CNc2cc(-c3cnc(NC(=O)C4CC4)cn3)cnc2C#N)CC1 [Example 98, N-(5-(6-cyano-5-((2-(4-(2-methoxyethyl)piperazin-1-yl)-2-oxoethyl)amino)pyridin-3-yl)pyrazin-2-yl)cyclopropanecarboxamide]	5.1
CC[C@H](Nc1cc(-c2cnc(NC(=O)C3CC3)cn2)ccc1C#N)C(=O)N(C)C [Example 23, (S)-N-(5-(4-cyano-3-((1-(dimethylamino)-1-oxobutan-2-yl)amino)phenyl)pyrazin-2-yl)cyclopropanecarboxamide]	7.7
COC1CN(C(=O)[C@H](C)Nc2cc(-c3cnc(NC(=O)C4CC4)cn3)ccc2C#N)C1 [Example 16, (S)-N-(5-(4-cyano-3-((1-(3-methoxyazetidin-1-yl)-1-oxopropan-2-yl)amino)phenyl)pyrazin-2-yl)cyclopropanecarboxamide]	6.3
N#Cc1ccc(-c2cnc(NC(=O)C3CC3)cn2)cc1NCC(=O)N1CC(F)(F)C1 [Example 24, N-(5-(4-cyano-3-((2-(3,3-difluoroazetidin-1-yl)-2-oxoethyl)amino)phenyl)pyrazin-2-yl)cyclopropanecarboxamide]	6.8

same assay, conditions: -log(IC50), IC50 molar; 3 nM TBK1, 25 μM ATP, 60 min RT; read-out: TBK1 Inhibition (pIC50) (converted)

IC50	SMILES
200 nM	N#Cc1ncc(-c2cnc(NC(=O)C3CC3)cn2)cc1NCC(=O)N1CCOC[C@@H]1C(F)(F)F [Example 101, (R)-N-(5-(6-cyano-5-((2-oxo-2-(3-(trifluoromethyl)morpholino)ethyl)amino)pyridin-3-yl)pyrazin-2-yl)cyclopropanecarboxamide]
631 nM	N#Cc1ncc(-c2cnc(NC(=O)C3CC3)cn2)cc1NCC(=O)N1CCO[C@@H]1C(F)(F)F [Example 95, (R)-N-(5-(6-cyano-5-((2-oxo-2-(2-(trifluoromethyl)oxazolidin-3-yl)ethyl)amino)pyridin-3-yl)pyrazin-2-yl)cyclopropanecarboxamide]
